Reference: PMC12571850 (Frontiers in Pharmacology, 2025)

Key:
[1] = tested on: Ba/F3-KIF5B-RET-V804L tumor; experiment: Ba/F3-KIF5B-RET-V804L xenograft mouse model; type: in vivo; details: 3 mg/kg p.o. BID, NPSG mice
Ba/F3-KIF5B-RET-V804M = experiment: Cell proliferation (Celltiter-Glo), Ba/F3-KIF5B-RET-V804M; type: cell-based; details: anti-proliferative, read-out: IC50 (nM, mean ± SD)
Protocol: (§1) Ba/F3-KIF5B-RET, Ba/F3-CCDC6-RET, Ba/F3-KIF5B-RET-V804L, Ba/F3-KIF5B-RET-V804M, Ba/F3-KIF5B-RET-G810R, and Ba/F3-KIF5B-RET-G810S cells were provided by Kyinno Biotechnology Co., Ltd. The cells were cultured in RPMI 1640 (Biological Industries, Israel) supplemented with 10% fetal bovine serum (Biological Industries, Israel) and 1% Penicillin/Streptomycin solution (Corning, United States). They were incubated at 37 °C in a humidified atmosphere containing 5% CO2, and cell proliferation was evaluated using the Celltiter-Glo luminescent cell viability assay.

[2] = tested on: Ba/F3-KIF5B-RET-G810S tumor; experiment: Ba/F3-KIF5B-RET-G810S xenograft mouse model; type: in vivo; details: 10 mg/kg p.o. BID, NOD SCID mice
Ba/F3-KIF5B-RET-V804L = experiment: Cell proliferation (Celltiter-Glo), Ba/F3-KIF5B-RET-V804L; type: cell-based; details: anti-proliferative, read-out: IC50 (nM, mean ± SD)
Protocol: as §1

Ba/F3-KIF5B-RET = experiment: Cell proliferation (Celltiter-Glo), Ba/F3-KIF5B-RET; type: cell-based; details: anti-proliferative, read-out: IC50 (nM, mean ± SD)
Protocol: as §1

[3] = tested on: Ba/F3-KIF5B-RET-G810R tumor; experiment: Ba/F3-KIF5B-RET-G810R xenograft mouse model; details: 10 mg/kg p.o. BID days 0–16, NOD SCID mice
Ba/F3-KIF5B-RET-G810R = experiment: Cell proliferation (Celltiter-Glo), Ba/F3-KIF5B-RET-G810R; type: cell-based; details: anti-proliferative, read-out: IC50 (nM, mean ± SD)
Protocol: as §1

Ba/F3-KIF5B-RET tumor = experiment: Ba/F3-KIF5B-RET xenograft mouse model; type: in vivo; details: 3 mg/kg p.o. BID, B-NDG mice
Ba/F3-CCDC6-RET = experiment: Cell proliferation (Celltiter-Glo), Ba/F3-CCDC6-RET; type: cell-based; details: BaF3/CCDC6-RET, anti-proliferative, read-out: IC50 (nM, mean ± SD)
Protocol: as §1

Ba/F3-KIF5B-RET-G810S = experiment: Cell proliferation (Celltiter-Glo), Ba/F3-KIF5B-RET-G810S; type: cell-based; details: anti-proliferative, read-out: IC50 (nM, mean ± SD)
Protocol: as §1

COc1ccc(CN2C3CC2CN(c2ccc(-c4cc(OCC(C)(C)O)cn5ncc(C#N)c45)cn2)C3)cn1 [Selpercatinib]
TGI [1]: 79.48%
IC50 (Ba/F3-KIF5B-RET-V804M): 65.3 ± 20.7 nM
TGI [2]: 82.15%
IC50 (Ba/F3-KIF5B-RET-V804L): 16.2 ± 3.22 nM
IC50 (Ba/F3-KIF5B-RET): 11.5 ± 4.31 nM
TGI [3]: 35.37%
IC50 (Ba/F3-KIF5B-RET-G810R): 734 ± 56.1 nM
tumor growth inhibition (TGI) (Ba/F3-KIF5B-RET tumor): 57.06%
IC50 (Ba/F3-CCDC6-RET): 70.3 ± 0.91 nM
IC50 (Ba/F3-KIF5B-RET-G810S): 125 ± 19.7 nM
